Calls of active or inactive are those of the source. No cut-off for these calls is given here.
How the values were obtained:
KB = test: Cytotoxicity against human KB cells; format: functional, cell-based
P388 = test: Cytotoxicity against mouse P388 cells; format: functional, cell-based

In the case of `COC(=O)C[C@@H]1C(=O)C[C@H]2[C@H]([C@H]1C)[C@@H](O)[C@@H](OC(=O)/C=C/c1ccccc1)[C@@]1(O)C(C)(C)CCC[C@]21C`, the Activity (KB) is reported as “inactive” and the Activity (P388) is reported as “inactive”.

— ChEMBL document CHEMBL1149011, “Pulcherralpin, a new diterpene ester from Caesalpinia pulcherrima” (J Nat Prod, 1986)
